Experimental data from PubChem BioAssay (NCI).
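Growth conditions: 96-well plates. Treatment: test compound, 48 hours, 5 concentrations. Analysis: linear interpolation between bracketing concentrations; unreached endpoints set to highest concentration. The concentration for 50% growth inhibition is given as GI50. TGI marks complete inhibition of growth.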

Tests used:
Assay in all cases: NCI-60 cell line screen, 48 h
786-0 renal = tested on: 786-0 renal
MDA-MB-231 breast = tested on: MDA-MB-231 breast
NCI-H522 lung = tested on: NCI-H522 lung
UACC-62 melanoma = tested on: UACC-62 melanoma
HOP-92 NSCLC = tested on: HOP-92 NSCLC
RPMI-8226 leukemia = tested on: RPMI-8226 leukemia
UO-31 renal = tested on: UO-31 renal
NCI-H460 lung = tested on: NCI-H460 lung
RXF 393 renal = tested on: RXF 393 renal
NCI-H23 lung = tested on: NCI-H23 lung
NCI/ADR-RES ovarian = tested on: NCI/ADR-RES ovarian
HS 578T breast = tested on: HS 578T breast
SK-MEL-2 melanoma = tested on: SK-MEL-2 melanoma
OVCAR-8 ovarian = tested on: OVCAR-8 ovarian
OVCAR-3 ovarian = tested on: OVCAR-3 ovarian
M14 melanoma = tested on: M14 melanoma
HL-60(TB) leukemia = tested on: HL-60(TB) leukemia
LOX IMVI melanoma = tested on: LOX IMVI melanoma
HOP-62 NSCLC = tested on: HOP-62 NSCLC
UACC-257 melanoma = tested on: UACC-257 melanoma
A549 NSCLC = tested on: A549 NSCLC
COLO 205 colon = tested on: COLO 205 colon
SF-539 CNS = tested on: SF-539 CNS
OVCAR-4 ovarian = tested on: OVCAR-4 ovarian
HCC-2998 colon = tested on: HCC-2998 colon
SF-295 CNS = tested on: SF-295 CNS
SF-268 CNS = tested on: SF-268 CNS
CCRF-CEM leukemia = tested on: CCRF-CEM leukemia
MCF7 breast = tested on: MCF7 breast
TK-10 renal = tested on: TK-10 renal
MOLT-4 leukemia = tested on: MOLT-4 leukemia
MALME-3M melanoma = tested on: MALME-3M melanoma
SN12C renal = tested on: SN12C renal
IGROV1 ovarian = tested on: IGROV1 ovarian
PC-3 prostate = tested on: PC-3 prostate
BT-549 breast = tested on: BT-549 breast
CAKI-1 renal = tested on: CAKI-1 renal
KM12 colon = tested on: KM12 colon
NCI-H226 lung = tested on: NCI-H226 lung
SW-620 colon = tested on: SW-620 colon
SNB-75 CNS = tested on: SNB-75 CNS
K-562 leukemia = tested on: K-562 leukemia
SK-OV-3 ovarian = tested on: SK-OV-3 ovarian
OVCAR-5 ovarian = tested on: OVCAR-5 ovarian
SK-MEL-28 melanoma = tested on: SK-MEL-28 melanoma
EKVX NSCLC = tested on: EKVX NSCLC
HT29 colon = tested on: HT29 colon
SNB-19 CNS = tested on: SNB-19 CNS
U251 CNS = tested on: U251 CNS
ACHN renal = tested on: ACHN renal
T-47D breast = tested on: T-47D breast
DU-145 prostate = tested on: DU-145 prostate
A498 renal = tested on: A498 renal
MDA-MB-435 = tested on: MDA-MB-435
SR leukemia = tested on: SR leukemia
SK-MEL-5 melanoma = tested on: SK-MEL-5 melanoma
HCT-15 colon = tested on: HCT-15 colon
HCT-116 colon = tested on: HCT-116 colon

## S=c1ssnc1-c1ccccn1
786-0 renal
  GI50: 2540 nM
  TGI: > 25.4 µM
MDA-MB-231 breast
  GI50: 3.44 µM
  TGI: 22 µM
NCI-H522 lung
  GI50: 1840 nM
  TGI: 4.12 µM
UACC-62 melanoma
  GI50: 5.31 µM
  TGI: 21.1 µM
HOP-92 NSCLC
  GI50: 1670 nM
  TGI: 6.73 µM
RPMI-8226 leukemia
  GI50: 2580 nM
  TGI: 29.3 µM
UO-31 renal
  GI50: 3.51 µM
  TGI: 22.2 µM
NCI-H460 lung
  GI50: 1820 nM
  TGI: 11.6 µM
RXF 393 renal
  GI50: 3.05 µM
  TGI: 6.47 µM
NCI-H23 lung
  GI50: 3.77 µM
  TGI: 18.4 µM
NCI/ADR-RES ovarian
  GI50: 3.84 µM
  TGI: 39.7 µM
HS 578T breast
  GI50: 2150 nM
  TGI: 7.86 µM
SK-MEL-2 melanoma
  GI50: 1880 nM
  TGI: 5.73 µM
OVCAR-8 ovarian
  GI50: 3.17 µM
  TGI: 23 µM
OVCAR-3 ovarian
  GI50: 3.21 µM
  TGI: 17.8 µM
M14 melanoma
  GI50: 2580 nM
  TGI: 19.6 µM
HL-60(TB) leukemia
  GI50: 1370 nM
  TGI: 4.65 µM
LOX IMVI melanoma
  GI50: 2540 nM
  TGI: 12.1 µM
HOP-62 NSCLC
  GI50: 3.83 µM
  TGI: 27.9 µM
UACC-257 melanoma
  GI50: 3.1 µM
  TGI: 8.47 µM
A549 NSCLC
  GI50: 8.92 µM
  TGI: 37.9 µM
COLO 205 colon
  GI50: 3.96 µM
  TGI: 17.8 µM
SF-539 CNS
  GI50: 2520 nM
  TGI: 15.1 µM
OVCAR-4 ovarian
  GI50: 9.36 µM
  TGI: > 100 µM
HCC-2998 colon
  GI50: 3.4 µM
  TGI: 12.7 µM
SF-295 CNS
  GI50: 5.17 µM
  TGI: 24.9 µM
SF-268 CNS
  GI50: 2710 nM
  TGI: 20.1 µM
CCRF-CEM leukemia
  GI50: 1270 nM
  TGI: 4.24 µM
MCF7 breast
  GI50: 2840 nM
  TGI: > 35.9 µM
TK-10 renal
  GI50: 5.04 µM
  TGI: 32.4 µM
MOLT-4 leukemia
  GI50: 1270 nM
  TGI: 4.58 µM
MALME-3M melanoma
  GI50: 7.77 µM
  TGI: 36.1 µM
SN12C renal
  GI50: 5.91 µM
  TGI: 32 µM
IGROV1 ovarian
  GI50: 1810 nM
  TGI: 11 µM
PC-3 prostate
  GI50: 3000 nM
  TGI: > 34.6 µM
BT-549 breast
  GI50: 6.38 µM
  TGI: 28.7 µM
CAKI-1 renal
  GI50: 3.07 µM
  TGI: 16.3 µM
KM12 colon
  GI50: 3.72 µM
  TGI: 15.4 µM
NCI-H226 lung
  GI50: 7.08 µM
  TGI: 25.1 µM
SW-620 colon
  GI50: 2720 nM
  TGI: 14.5 µM
SNB-75 CNS
  GI50: 3.13 µM
  TGI: > 38.6 µM
K-562 leukemia
  GI50: 1400 nM
  TGI: 16.2 µM
SK-OV-3 ovarian
  GI50: 12.8 µM
  TGI: > 86.9 µM
OVCAR-5 ovarian
  GI50: 5.38 µM
  TGI: 25.1 µM
SK-MEL-28 melanoma
  GI50: 2870 nM
  TGI: 13 µM
EKVX NSCLC
  GI50: 5.64 µM
  TGI: 22 µM
HT29 colon
  GI50: 5.28 µM
  TGI: > 40.7 µM
SNB-19 CNS
  GI50: 11.2 µM
  TGI: > 94.8 µM
U251 CNS
  GI50: 4.63 µM
  TGI: 33.2 µM
ACHN renal
  GI50: 2250 nM
  TGI: 14.7 µM
T-47D breast
  GI50: 5.59 µM
  TGI: > 55.5 µM
DU-145 prostate
  GI50: 1340 nM
  TGI: 13.8 µM
A498 renal
  GI50: 6.8 µM
  TGI: 31.8 µM
MDA-MB-435
  GI50: 3.28 µM
  TGI: 16.3 µM
SR leukemia
  GI50: 521 nM
  TGI: > 21.5 µM
SK-MEL-5 melanoma
  GI50: 8.81 µM
  TGI: > 37.6 µM
HCT-15 colon
  GI50: 2200 nM
  TGI: 15.7 µM
HCT-116 colon
  GI50: 1240 nM
  TGI: > 20.1 µM
